From patent publication US10294202B2, “Pyrrolidinones as herbicides” (FMC Corporation, priority 2013, dated 2019)

Key:
barnyardgrass [1] = test: Test A pre-/postemergence herbicide test; assay type: in vivo, Echinochloa crus-galli
In short: (§1)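 Formulated compound (non-phytotoxic solvent, surfactant) sprayed pre- onto soil of seeded loam/sand pots or post- onto seedlings at 1–2 leaves; ~10 d greenhouse; 0–100 visual control rating versus untreated.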

crabgrass, large = test: Test A pre-/postemergence herbicide test; assay type: in vivo, Digitaria sanguinalis
In short: as §1

giant foxtail = test: Test A pre-/postemergence herbicide test; assay type: in vivo, Setaria faberii
In short: as §1

morningglory = test: Test A pre-/postemergence herbicide test; assay type: in vivo, Ipomoea spp.
In short: as §1

pigweed = test: Test A pre-/postemergence herbicide test; assay type: in vivo, Amaranthus retroflexus
In short: as §1

velvetleaf = test: Test A pre-/postemergence herbicide test; assay type: in vivo, Abutilon theophrasti
In short: as §1

wheat = test: Test A pre-/postemergence herbicide test; assay type: in vivo, Triticum aestivum
In short: as §1

corn = test: Test A pre-/postemergence herbicide test; assay type: in vivo, Zea mays
In short: as §1

rice = test: Test B flooded paddy test; assay type: in vivo, Oryza sativa; conditions: Flood, scale of 0 to 100 where 0 is no effect and 100 is complete control
In short: (§2)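 Plants were grown to the 2-leaf stage, then pots were flooded to 3 cm above the soil and compound was applied directly into the paddy water, with that depth held throughout. After 13 to 15 days in a greenhouse, injury was rated visually against untreated controls on a 0 to 100 scale (100 = complete control).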

sedge, umbrella = test: Test B flooded paddy test; assay type: in vivo, Cyperus difformis; conditions: Flood, scale of 0 to 100 where 0 is no effect and 100 is complete control
In short: as §2

ducksalad = test: Test B flooded paddy test; assay type: in vivo, Heteranthera limosa; conditions: Flood, scale of 0 to 100 where 0 is no effect and 100 is complete control
In short: as §2

barnyardgrass [2] = test: Test B flooded paddy test; assay type: in vivo, Echinochloa crus-galli; conditions: Flood, scale of 0 to 100 where 0 is no effect and 100 is complete control
In short: as §2

[3] = 125 g ai/ha, visual rating, 0 to 100 scale, 0 no effect, 100 complete control, approximately 10 days, preemergence
[4] = Postemergence, 125 g ai/ha, 0 to 100 scale, 0 is no effect, 100 is complete control
[5] = preemergence, 500 g ai/ha, 0 to 100 scale, 0 is no effect and 100 is complete control
[6] = Postemergence, 1000 g ai/ha, 0 to 100 scale (0 no effect, 100 complete control)
[7] = preemergence, 1000 g ai/ha, 0 to 100 scale
[8] = Postemergence, 125 g ai/ha, 0 to 100 scale, 0 no effect, 100 complete control
[9] = Postemergence, 500 g ai/ha, 0 to 100 scale (0 no effect, 100 complete control)
[10] = Preemergence, 125 g ai/ha, visual rating on 0 to 100 scale (0 no effect, 100 complete control)
[11] = preemergence, 500 g ai/ha, 0 to 100 scale

COc1cc(C2CNC(=O)C2C(=O)Nc2ccccc2F)ccc1F (racemic) [Compound 194]
50: Plant response rating, Barnyardgrass (barnyardgrass [1]; [4]) | Plant response rating, Foxtail, Giant (giant foxtail; [3]) | Foxtail, Giant plant response rating (0 to 100 scale, 0 is no effect, 100 is complete control) (giant foxtail; Postemergence, 500 g ai/ha)
0: Plant response rating, Barnyardgrass (barnyardgrass [1]; [3]) | Plant response rating, Morningglory (morningglory; [3]) | Plant response rating, Morningglory (morningglory; [4]) | Morningglory plant response rating (0 to 100 scale, 0 is no effect, 100 is complete control) (morningglory; Postemergence, 500 g ai/ha) | Plant response rating, Morningglory (morningglory; [5]) | Plant response rating, Pigweed (pigweed; [3]) | Plant response rating, Pigweed (pigweed; [4]) | Pigweed plant response rating (0 to 100 scale, 0 is no effect, 100 is complete control) (pigweed; Postemergence, 500 g ai/ha) | Plant response rating, Pigweed (pigweed; [5]) | Plant response rating, Velvetleaf (velvetleaf; [3]) | Plant response rating, Velvetleaf (velvetleaf; [4]) | Velvetleaf plant response rating (0 to 100 scale, 0 is no effect, 100 is complete control) (velvetleaf; Postemergence, 500 g ai/ha) | Plant response rating, Velvetleaf (velvetleaf; [5]) | Plant response rating, Wheat (wheat; [3]) | Plant response rating, Wheat (wheat; [4]) | Wheat plant response rating (0 to 100 scale, 0 is no effect, 100 is complete control) (wheat; Postemergence, 500 g ai/ha) | Plant response rating, Wheat (wheat; [5]) | Plant response rating, Corn (corn; [3]) | Plant response rating, Corn (corn; [4]) | Corn plant response rating (0 to 100 scale, 0 is no effect, 100 is complete control) (corn; Postemergence, 500 g ai/ha) | Plant response rating, Corn (corn; [5]) | Plant response rating, Rice (rice; 250 g ai/ha) | Plant response rating, Sedge, Umbrella (sedge, umbrella; 250 g ai/ha) | Plant response rating, Sedge, Umbrella (sedge, umbrella; 1000 g ai/ha) | Plant response rating, Barnyardgrass (barnyardgrass [2]; 250 g ai/ha)
80: Barnyardgrass plant response rating (0 to 100 scale, 0 is no effect, 100 is complete control) (barnyardgrass [1]; Postemergence, 500 g ai/ha) | Plant response rating, Barnyardgrass (barnyardgrass [1]; [5]) | Crabgrass, Large plant response rating (0 to 100 scale, 0 is no effect, 100 is complete control) (crabgrass, large; Postemergence, 500 g ai/ha) | Plant response rating, Ducksalad (ducksalad; 1000 g ai/ha)
20: Plant response rating, Rice (rice; 1000 g ai/ha)
10: Plant response rating, Foxtail, Giant (giant foxtail; [4])
65: Plant response rating, Barnyardgrass (barnyardgrass [2]; 1000 g ai/ha)
90: Plant response rating, Crabgrass, Large (crabgrass, large; [3]) | Plant response rating, Foxtail, Giant (giant foxtail; [5])
100: Plant response rating, Crabgrass, Large (crabgrass, large; [5])
60: Plant response rating, Crabgrass, Large (crabgrass, large; [4])
45: Plant response rating, Ducksalad (ducksalad; 250 g ai/ha)

O=C1NCC(c2ccc(F)c(F)c2)C1C(=O)Nc1cccc(F)c1Cl (racemic) [Compound 108]
0: Plant response rating, Morningglory (morningglory; [7]) | Plant response rating, Pigweed (pigweed; [6]) | Plant response rating, Pigweed (pigweed; [7]) | Plant response rating, Velvetleaf (velvetleaf; [7]) | Plant response rating, Wheat (wheat; [6]) | Plant response rating, Wheat (wheat; [7]) | Plant response rating, Corn (corn; [6]) | Plant response rating, Corn (corn; [7]) | Plant response rating, Rice (rice; 1000 g ai/ha) | Plant response rating, Sedge, Umbrella (sedge, umbrella; 1000 g ai/ha)
10: Plant response rating, Morningglory (morningglory; [6]) | Plant response rating, Velvetleaf (velvetleaf; [6])
50: Plant response rating, Barnyardgrass (barnyardgrass [2]; 1000 g ai/ha)
95: Plant response rating, Ducksalad (ducksalad; 1000 g ai/ha)
90: Plant response rating, Barnyardgrass (barnyardgrass [1]; [6]) | Plant response rating, Barnyardgrass (barnyardgrass [1]; preemergence, 1000 g ai/ha, 0 to 100 scale (0 no effect, 100 complete control)) | Plant response rating, Crabgrass, Large (crabgrass, large; [6]) | Plant response rating, Crabgrass, Large (crabgrass, large; [7]) | Plant response rating, Foxtail, Giant (giant foxtail; [7])
80: Plant response rating, Foxtail, Giant (giant foxtail; [6])

O=C1NCC(c2ccc(F)c(F)c2)C1C(=O)Nc1ccccn1 (stereo not shown) [Compound 45]
70: Plant response rating, Foxtail, Giant (giant foxtail; [9])
90: Plant response rating, Crabgrass, Large (crabgrass, large; [11])
50: Plant response rating, Barnyardgrass (barnyardgrass [1]; [8]) | Foxtail, Giant plant response rating (giant foxtail; [10]) | Plant response rating, Morningglory (morningglory; [9])
60: Plant response rating, Crabgrass, Large (crabgrass, large; [8])
0: Morningglory plant response rating (morningglory; [10]) | Plant response rating, Morningglory (morningglory; [11]) | Plant response rating, Pigweed (pigweed; [8]) | Plant response rating, Pigweed (pigweed; [9]) | Pigweed plant response rating (pigweed; [10]) | Plant response rating, Pigweed (pigweed; [11]) | Plant response rating, Velvetleaf (velvetleaf; [8]) | Plant response rating, Velvetleaf (velvetleaf; [9]) | Velvetleaf plant response rating (velvetleaf; [10]) | Plant response rating, Velvetleaf (velvetleaf; [11]) | Plant response rating, Wheat (wheat; [8]) | Plant response rating, Wheat (wheat; [9]) | Wheat plant response rating (wheat; [10]) | Plant response rating, Wheat (wheat; [11]) | Corn plant response rating (corn; [10]) | Plant response rating, Corn (corn; [11]) | Plant response rating, Barnyardgrass (barnyardgrass [2]; 250 g ai/ha)
20: Plant response rating, Foxtail, Giant (giant foxtail; [8]) | Plant response rating, Rice (rice; 250 g ai/ha)
10: Barnyardgrass plant response rating (barnyardgrass [1]; [10])
40: Plant response rating, Morningglory (morningglory; [8]) | Plant response rating, Sedge, Umbrella (sedge, umbrella; 250 g ai/ha)
80: Plant response rating, Barnyardgrass (barnyardgrass [1]; [9]) | Plant response rating, Barnyardgrass (barnyardgrass [1]; preemergence, 500 g ai/ha, 0 to 100 scale (0 no effect, 100 complete control)) | Plant response rating, Crabgrass, Large (crabgrass, large; [9]) | Crabgrass, Large plant response rating (crabgrass, large; [10]) | Plant response rating, Foxtail, Giant (giant foxtail; [11]) | Plant response rating, Ducksalad (ducksalad; 250 g ai/ha)
